Measured values published in US11957687B2 (REGENERON PHARMACEUTICALS, INC., priority 2019, dated 2024).
pIC50: −log10 of the molar value.

The molecules below were run against HSD17B13 (Homo sapiens (Human), UniProt Q7Z5P4) (assay: HSD17B13 enzymatic inhibition assay (150 nM or 50 nM HSD17B13)). Conditions: 50 nM HSD17B13; read-out: Inhibition of 50 nM of HSD17B13 IC50.
Sequence of HSD17B13 (Q7Z5P4 other isoform, or with tags, fused parts or gaps): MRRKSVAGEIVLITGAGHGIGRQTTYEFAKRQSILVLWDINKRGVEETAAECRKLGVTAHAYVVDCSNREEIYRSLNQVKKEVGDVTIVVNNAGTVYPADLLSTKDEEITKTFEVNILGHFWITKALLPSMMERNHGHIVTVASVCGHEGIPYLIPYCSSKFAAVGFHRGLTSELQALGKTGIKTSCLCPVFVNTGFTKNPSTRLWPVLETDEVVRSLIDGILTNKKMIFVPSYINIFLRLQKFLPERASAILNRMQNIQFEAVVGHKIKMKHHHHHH
Assay type: biochemical
In the case of `O=C(NC1c2ccccc2C=Cc2ccccc21)c1ccc(C(F)(F)F)[nH]c1=O` [Compound 5A, N-(5H-dibenzo[a,d][7]annulen-5-yl)-2-oxo-6-(trifluoromethyl)-1,2-dihydropyridine-3-carboxamide], the pIC50 was 5.82.
In the case of `Nc1ccc(C(NC(=O)c2ccc(C(F)(F)F)[nH]c2=O)c2ccccc2)cc1` (stereo not shown) [Compound 6A, N-((4-aminophenyl)(phenyl)methyl)-2-oxo-6-(trifluoromethyl)-1,2-dihydropyridine-3-carboxamide], the pIC50 was 5.29.
Work on `COc1ccccc1C(NC(=O)c1ccc(C(F)(F)F)[nH]c1=O)c1ccccc1` (stereo not shown) [Compound 8, N-((2-methoxyphenyl)(phenyl)methyl)-2-oxo-6-(trifluoromethyl)-1,2-dihydropyridine-3-carboxamide] yielded a pIC50 of 5.79.
Work on `O=C(NC1c2ccc(OC(F)(F)F)cc2-c2cc(OC(F)(F)F)ccc21)c1ccc(C(F)(F)F)[nH]c1=O` [Compound 8A, N-(3,6-bis(trifluoromethoxy)-9H-fluoren-9-yl)-2-oxo-6-(trifluoromethyl)-1,2-dihydropyridine-3-carboxamide] yielded a pIC50 of 5.20.
Molecule `O=C(NC(c1ccccc1)c1ccc(N2CCCCC2)cc1)c1ccc(C(F)(F)F)[nH]c1=O` (stereo not shown) [Compound 9A, 2-oxo-N-(phenyl(4-(piperidin-1-yl)phenyl)methyl)-6-(trifluoromethyl)-1,2-dihydropyridine-3-carboxamide] has a pIC50 of 5.92.
Work on `O=C(NC(c1ccc(Br)cc1)c1ccc(Br)cc1)c1ccc(C(F)(F)F)[nH]c1=O` [Compound 10, N-(bis(4-bromophenyl)methyl)-2-oxo-6-(trifluoromethyl)-1,2-dihydropyridine-3-carboxamide] yielded a pIC50 of 6.17.
For `O=C(NC1c2ccccc2Sc2ccccc21)c1ccc(C(F)(F)F)[nH]c1=O` [Compound 10A, 2-oxo-N-(9H-thioxanthen-9-yl)-6-(trifluoromethyl)-1,2-dihydropyridine-3-carboxamide], the pIC50 was 5.84.
`O=C(NC(c1ccc(OC(F)(F)F)cc1)c1ccc(OC(F)(F)F)cc1)c1ccc(C(F)(F)F)[nH]c1=O` [Compound 11, N-(bis(4-(trifluoromethoxy)phenyl)methyl)-2-oxo-6-(trifluoromethyl)-1,2-dihydropyridine-3-carboxamide] was tested, and the pIC50 was 5.96.
Molecule `O=C(NC1c2ccccc2S(=O)(=O)c2ccccc21)c1ccc(C(F)(F)F)[nH]c1=O` [Compound 11A, N-(10,10-dioxido-9H-thioxanthen-9-yl)-2-oxo-6-(trifluoromethyl)-1,2-dihydropyridine-3-carboxamide] has a pIC50 of 5.92.
`Cc1ccc(C(NC(=O)c2cnc(C(F)(F)F)[nH]c2=O)c2ccc(C)cc2)cc1` [Compound 13A, N-(di-p-tolylmethyl)-6-oxo-2-(trifluoromethyl)-1,6-dihydropyrimidine-5-carboxamide] gave a pIC50 of 5.88.
With `O=C(NC1c2ccc(Cl)cc2-c2cc(Cl)ccc21)c1ccc(C(F)(F)F)[nH]c1=O` [Compound 14A, N-(3,6-dichloro-9H-fluoren-9-yl)-2-oxo-6-(trifluoromethyl)-1,2-dihydropyridine-3-carboxamide] the pIC50 was 5.37.
For `O=C(NC(c1ccccc1)c1ccc(O)c(F)c1)c1ccc(C(F)(F)F)[nH]c1=O` (stereo not shown) [Compound 16A, N-((3-fluoro-4-hydroxyphenyl)(phenyl)methyl)-2-oxo-6-(trifluoromethyl)-1,2-dihydropyridine-3-carboxamide], the pIC50 was 5.44.
`O=C(NC(c1ccccc1)c1ccccc1C(F)(F)F)c1ccc(C(F)(F)F)[nH]c1=O` (stereo not shown) [Compound 17A, 2-oxo-N-(phenyl(2-(trifluoromethyl)phenyl)methyl)-6-(trifluoromethyl)-1,2-dihydropyridine-3-carboxamide] gave a pIC50 of 5.51.
In the case of `Cc1ccc(C(NC(=O)c2cnc(C(F)(F)F)[nH]c2=O)c2ccccc2)cc1C` (stereo not shown) [Compound 18A, N-((3,4-dimethylphenyl)(phenyl)methyl)-6-oxo-2-(trifluoromethyl)-1,6-dihydropyrimidine-5-carboxamide], the pIC50 was 5.58.
Molecule `CC(NC(=O)c1ccc(C(F)(F)F)[nH]c1=O)(c1ccc(O)cc1)c1ccc(O)cc1` [Compound 21A, N-(1,1-bis(4-hydroxyphenyl)ethyl)-2-oxo-6-(trifluoromethyl)-1,2-dihydropyridine-3-carboxamide] has a pIC50 of 5.73.
`CCC(NC(=O)c1ccc(C(F)(F)F)[nH]c1=O)c1ccc(Cl)cc1` (stereo not shown) [Compound 22A, N-(1-(4-chlorophenyl)propyl)-2-oxo-6-(trifluoromethyl)-1,2-dihydropyridine-3-carboxamide] gave a pIC50 of 5.53.
With `O=C(NC(c1ccc(O)cc1)c1ccc(O)cc1)c1ccc(C(F)(F)F)[nH]c1=O` [Compound 23, N-(bis(4-hydroxyphenyl)methyl)-2-oxo-6-(trifluoromethyl)-1,2-dihydropyridine-3-carboxamide] the pIC50 was 5.37.
`O=C(NC(c1ccc(CC(F)(F)F)cc1)c1ccc(CC(F)(F)F)cc1)c1ccc(C(F)(F)F)[nH]c1=O` [Compound 23A, N-(bis(4-(2,2,2-trifluoroethyl)phenyl)methyl)-2-oxo-6-(trifluoromethyl)-1,2-dihydropyridine-3-carboxamide] showed a pIC50 of 6.00.
`C/C=C/c1ccc(C(NC(=O)c2ccc(C(F)(F)F)[nH]c2=O)c2ccccc2)cc1` (stereo not shown) [Compound 29, (E)-2-oxo-N-(phenyl(4-(prop-1-en-1-yl)phenyl)methyl)-6-(trifluoromethyl)-1,2-dihydropyridine-3-carboxamide] was tested, and the pIC50 was 6.33.
`C=C(C)c1ccc(C(NC(=O)c2ccc(C(F)(F)F)[nH]c2=O)c2ccccc2)cc1` (stereo not shown) [Compound 30, 2-oxo-N-(phenyl(4-(prop-1-en-2-yl)phenyl)methyl)-6-(trifluoromethyl)-1,2-dihydropyridine-3-carboxamide] was tested, and the pIC50 was 6.12.
For `O=C(NC(c1ccccc1)c1ccc(C2=CCCC2)cc1)c1ccc(C(F)(F)F)[nH]c1=O` (stereo not shown) [Compound 31, N-((4-(cyclopent-1-en-1-yl)phenyl)(phenyl)methyl)-2-oxo-6-(trifluoromethyl)-1,2-dihydropyridine-3-carboxamide], the pIC50 was 6.34.
`O=C(NC(c1ccccc1)c1ccc(C2=CCCCC2)cc1)c1ccc(C(F)(F)F)[nH]c1=O` (stereo not shown) [Compound 32, 2-oxo-N-(phenyl(2′,3′,4,5′-tetrahydro-[1,1′-biphenyl]-4-yl)methyl)-6-(trifluoromethyl)-1,2-dihydropyridine-3-carboxamide] showed a pIC50 of 6.40.
For `O=C(NC(c1ccccc1)c1ccc(C2=CCOCC2)cc1)c1ccc(C(F)(F)F)[nH]c1=O` (stereo not shown) [Compound 33, N-((4-(3,6-dihydro-2H-pyran-4-yl)phenyl)(phenyl)methyl)-2-oxo-6-(trifluoromethyl)-1,2-dihydropyridine-3-carboxamide], the pIC50 was 6.09.
In the case of `O=C(NC(c1ccc(F)cc1)c1ccc(F)cc1)c1ccc(C(F)(F)F)[nH]c1=O` [Compound 34, N-(bis(4-fluorophenyl)methyl)-2-oxo-6-(trifluoromethyl)-1,2-dihydropyridine-3-carboxamide], the pIC50 was 5.79.
`O=C(NC(c1ccccc1)c1ccc(C2CCCC2)cc1)c1ccc(C(F)(F)F)[nH]c1=O` (stereo not shown) [Compound 38, N-((4-cyclopentylphenyl)(phenyl)methyl)-2-oxo-6-(trifluoromethyl)-1,2-dihydropyridine-3-carboxamide] gave a pIC50 of 6.35.
`O=C(NC(c1ccccc1)c1ccc(C2CCCCC2)cc1)c1ccc(C(F)(F)F)[nH]c1=O` (stereo not shown) [Compound 39, N-((4-cyclohexylphenyl)(phenyl)methyl)-2-oxo-6-(trifluoromethyl)-1,2-dihydropyridine-3-carboxamide] gave a pIC50 of 6.31.
For `O=C(NC1c2ccccc2CCc2ccccc21)c1ccc(C(F)(F)F)[nH]c1=O` [Compound 40, N-(10,11-dihydro-5H-dibenzo[a,d][7]annulen-5-yl)-2-oxo-6-(trifluoromethyl)-1,2-dihydropyridine-3-carboxamide], the pIC50 was 5.78.
With `CN(C)c1ccc(C(NC(=O)c2ccc(C(F)(F)F)[nH]c2=O)c2ccccc2)cc1` (stereo not shown) [Compound 41, N-((4-(dimethylamino)phenyl) (phenyl)methyl)-2-oxo-6-(trifluoromethyl)-1,2-dihydropyridine-3-carboxamide] the pIC50 was 5.89.
`CCc1ccc2c(c1)-c1cc(CC)ccc1C2NC(=O)c1ccc(C(F)(F)F)[nH]c1=O` [Compound 42, N-(3,6-diethyl-9H-fluoren-9-yl)-2-oxo-6-(trifluoromethyl)-1,2-dihydropyridine-3-carboxamide] was tested, and the pIC50 was 5.89.
With `O=C(NC1c2ccc(O)cc2-c2cc(O)ccc21)c1ccc(C(F)(F)F)[nH]c1=O` [Compound 45, N-(3,6-dihydroxy-9H-fluoren-9-yl)-2-oxo-6-(trifluoromethyl)-1,2-dihydropyridine-3-carboxamide] the pIC50 was 5.76.
`O=C(NC1c2ccc(OC(F)F)cc2-c2cc(OC(F)F)ccc21)c1ccc(C(F)(F)F)[nH]c1=O` [Compound 47, N-(3,6-bis(difluoromethoxy)-9H-fluoren-9-yl)-2-oxo-6-(trifluoromethyl)-1,2-dihydropyridine-3-carboxamide] gave a pIC50 of 5.74.
`O=C(NC(c1ccccc1)c1ccc(N2CCOCC2)cc1)c1ccc(C(F)(F)F)[nH]c1=O` (stereo not shown) [Compound 48, N-((4-morpholinophenyl)(phenyl)methyl)-2-oxo-6-(trifluoromethyl)-1,2-dihydropyridine-3-carboxamide] showed a pIC50 of 5.60.
With `N#Cc1ccc(C(NC(=O)c2ccc(C(F)(F)F)[nH]c2=O)c2ccc(C#N)cc2)cc1` [Compound 49, N-(bis(4-cyanophenyl)methyl)-2-oxo-6-(trifluoromethyl)-1,2-dihydropyridine-3-carboxamide] the pIC50 was 6.01.

Same assay, conditions: 150 nM HSD17B13; read-out: Inhibition of 150 nM of HSD17B13 IC50
In the case of `COc1cccc(C(NC(=O)c2ccc(C(F)(F)F)[nH]c2=O)c2ccccc2)c1` (stereo not shown) [Compound 4, N-((3-methoxyphenyl)(phenyl)methyl)-2-oxo-6-(trifluoromethyl)-1,2-dihydropyridine-3-carboxamide], the pIC50 was 5.33.
Work on `O=C(NC(c1ccccc1)c1cccc(Cl)c1)c1ccc(C(F)(F)F)[nH]c1=O` (stereo not shown) [Compound 6, N-((3-chlorophenyl)(phenyl)methyl)-2-oxo-6-(trifluoromethyl)-1,2-dihydropyridine-3-carboxamide] yielded a pIC50 of 5.34.
For `COc1ccccc1C(NC(=O)c1ccc(C(F)(F)F)[nH]c1=O)c1ccccc1` (stereo not shown) [Compound 8, N-((2-methoxyphenyl)(phenyl)methyl)-2-oxo-6-(trifluoromethyl)-1,2-dihydropyridine-3-carboxamide], the pIC50 was 5.49.
Molecule `Cc1cccc(C(NC(=O)c2ccc(C(F)(F)F)[nH]c2=O)c2ccccc2)c1` (stereo not shown) [Compound 20, N-(phenyl(m-tolyl)methyl)-2-oxo-6-(trifluoromethyl)-1,2-dihydropyridine-3-carboxamide] has a pIC50 of 5.68.
